Test systems include CCRF-CEM; OVCAR-4; HCT-116; UACC-257; RPMI-8226; SK-OV-3; DU-145; NCI-H23; MDA-MB-231; SF-539; ACHN; OVCAR-5; IGROV-1; COLO 205; A549; HL-60; TK-10; T47D; OVCAR-8; HCC 2998.
Common to all, as to test: DTP human tumour cell line panel, 48 h

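These data come from cells grown in 96-well plates and exposed to compound for 48 hours at five concentrations. GI50 marks 50% less growth.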 The source made the active and inactive calls. No stated cut-off is given here; in the data, active = GI50 up to about 1.1 µM and inactive = higher.

Regarding `CCCCCCCCCCCCCCCC(=O)Nc1ccn(C2CC(OP(=O)(O)OCC3OC(n4cc(F)c(=O)[nH]c4=O)CC3OC(C)=O)C(CO)O2)c(=O)n1` (configuration not stated), the GI50 with CCRF-CEM is 3.18 µM (inactive); with OVCAR-4, 44.7 µM (inactive); in the assay with HCT-116 it was 3.84 µM (inactive); in the assay on UACC-257, > 57.1 µM (inactive); with RPMI-8226, 3.81 µM (inactive); in the assay with SK-OV-3, > 21.2 µM (inactive). The GI50 in the assay on DU-145 is 3.61 µM (inactive); in the assay with NCI-H23, 3.86 µM (inactive); in the assay on MDA-MB-231, > 43.4 µM (inactive); in the assay on SF-539 it was 0.07 µM (active); in the assay on ACHN, 0.128 µM (active); with OVCAR-5, > 41.8 µM (inactive). Besides, the GI50 in the assay on IGROV-1 is 23.9 µM (inactive); in the assay on COLO 205, 18.3 µM (inactive); with A549 it was 0.836 µM (active); in the assay on HL-60 it was 3.94 µM (inactive); in the assay on TK-10, > 64 µM (inactive); in the assay with T47D it was 20.8 µM (inactive). The GI50 in the assay on OVCAR-8 is 3.78 µM (inactive).

For the compound `CC(=O)O[C@H]1C[C@@H](OC(C)=O)[C@@](C)(O)[C@@H]2[C@@H](OC(C)=O)[C@@]3(O)[C@H](/C=C(/CO)[C@H]4O[C@H]4[C@@H](OC(C)=O)[C@@]12C)OC(=O)[C@@H]3C`, the GI50 was 6.59 µM (inactive) in the assay on CCRF-CEM; > 25 µM (inactive) with OVCAR-4; 10.3 µM (inactive) in the assay with HCT-116; 13.7 µM (inactive) with UACC-257; 8.91 µM (inactive) in the assay on HCC 2998; 9.86 µM (inactive) with RPMI-8226. The GI50 in the assay with SK-OV-3 is 11.9 µM (inactive); with DU-145 it was 5.27 µM (inactive); in the assay with NCI-H23, 16.8 µM (inactive); in the assay with MDA-MB-231, 7.06 µM (inactive); with ACHN it was 16.3 µM (inactive); in the assay with OVCAR-5, > 25 µM (inactive). For the same compound, the GI50 in the assay on IGROV-1 is 8.17 µM (inactive); in the assay on COLO 205 it was 9.35 µM (inactive); in the assay with A549 it was 10.4 µM (inactive); in the assay with TK-10, > 25 µM (inactive); in the assay with T47D it was 22.4 µM (inactive); in the assay on OVCAR-8, 12.7 µM (inactive).

Turning to `CNS(=O)(=O)c1ccccc1C(=N)c1ccccc1`, the GI50 in the assay on CCRF-CEM, in the assay on OVCAR-4, in the assay with HCT-116, in the assay on RPMI-8226, in the assay with SK-OV-3 and with DU-145 was > 100 µM (inactive) throughout. The GI50 in the assay with NCI-H23, in the assay with MDA-MB-231, with SF-539, in the assay with ACHN, with OVCAR-5 and with IGROV-1 was > 100 µM (inactive) in each case. For the same compound, the GI50 with COLO 205, in the assay with A549, in the assay with HL-60, in the assay on TK-10, in the assay on T47D and with OVCAR-8 was > 100 µM (inactive) in each case.

With `CC(=O)/C=C1\Nc2sc(C)c(C)c2C(=O)S1`, the GI50 is 21.7 µM (inactive) in the assay on CCRF-CEM; 42.2 µM (inactive) in the assay with OVCAR-4; 31.6 µM (inactive) in the assay on HCT-116; 70 µM (inactive) in the assay with UACC-257; 38.6 µM (inactive) in the assay on RPMI-8226; > 100 µM (inactive) in the assay with SK-OV-3. The GI50 with DU-145 was 69.7 µM (inactive); in the assay on NCI-H23, 35.5 µM (inactive); with MDA-MB-231, 88.3 µM (inactive); in the assay on SF-539, 24.5 µM (inactive); with ACHN, 74.8 µM (inactive); in the assay with OVCAR-5, > 100 µM (inactive). Also, the GI50 with IGROV-1 was 29.6 µM (inactive); with COLO 205 it was > 100 µM (inactive); in the assay with A549, > 100 µM (inactive); in the assay with HL-60, 32.1 µM (inactive); in the assay on TK-10, 80.4 µM (inactive); in the assay with T47D, 47.2 µM (inactive). For the same compound, in the assay with OVCAR-8, the GI50 was 35.6 µM (inactive).

Take `C[C@]12CC[C@@H]3c4ccc(O)cc4CC[C@H]3[C@@H]1C/C(=C\c1ccc([N+](=O)[O-])cc1)C2=O`: the GI50 in the assay on CCRF-CEM was 53.7 µM (inactive); in the assay on OVCAR-4, > 100 µM (inactive); in the assay with HCT-116 it was 37.7 µM (inactive); with UACC-257 it was 34.8 µM (inactive); in the assay on HCC 2998 it was 73.3 µM (inactive); in the assay on RPMI-8226, > 100 µM (inactive). Besides, the GI50 in the assay with SK-OV-3 was > 100 µM (inactive); in the assay on DU-145, 50 µM (inactive); in the assay on NCI-H23, 78.9 µM (inactive); in the assay on MDA-MB-231, 67.6 µM (inactive); in the assay on SF-539, 29.9 µM (inactive); with ACHN it was 61.4 µM (inactive). The GI50 was > 100 µM (inactive) in the assay with OVCAR-5; > 100 µM (inactive) with IGROV-1; > 100 µM (inactive) with COLO 205; 57.9 µM (inactive) in the assay with A549; 80 µM (inactive) in the assay on TK-10; 40 µM (inactive) in the assay with T47D. The GI50 with OVCAR-8 is 34.9 µM (inactive).

Turning to `COC(=O)C1Cc2c([nH]c3ccccc23)-c2[nH]c3ccccc3c2CC(NC(C)=O)C(=O)N2CCCC2C(=O)N1` (configuration not stated), the GI50 in the assay with CCRF-CEM was 93.5 µM (inactive); in the assay on OVCAR-4, > 100 µM (inactive); in the assay with HCT-116 it was > 100 µM (inactive); in the assay with UACC-257, > 100 µM (inactive); with HCC 2998, > 100 µM (inactive); in the assay with RPMI-8226 it was 56.8 µM (inactive). Also, the GI50 in the assay on SK-OV-3, with DU-145, in the assay on NCI-H23, in the assay with MDA-MB-231, in the assay on SF-539 and in the assay with ACHN was > 100 µM (inactive) throughout. Also, the GI50 with OVCAR-5 was > 100 µM (inactive); with IGROV-1, 24.8 µM (inactive); in the assay with COLO 205, 53.1 µM (inactive); with A549, > 100 µM (inactive); with TK-10 it was > 100 µM (inactive); in the assay on T47D, > 100 µM (inactive). Further, the GI50 in the assay with OVCAR-8 was > 100 µM (inactive).

Turning to `O=C(c1ccccc1)c1ccc2[nH]c(-c3c(Cl)c(Cl)c(Cl)c(Cl)c3C(=O)N/N=C/c3cccc(Oc4ccccc4)c3)nc2c1`, the GI50 in the assay with CCRF-CEM is 39.6 µM (inactive); in the assay with OVCAR-4 it was 99.3 µM (inactive); in the assay on HCT-116, 76.6 µM (inactive); in the assay with UACC-257, > 100 µM (inactive); with RPMI-8226 it was > 100 µM (inactive); in the assay on SK-OV-3, > 100 µM (inactive). Further, the GI50 in the assay with DU-145 is > 100 µM (inactive); in the assay with NCI-H23 it was 74.1 µM (inactive); in the assay on MDA-MB-231, > 100 µM (inactive); in the assay with SF-539 it was > 100 µM (inactive); in the assay on ACHN it was > 100 µM (inactive); with OVCAR-5, > 100 µM (inactive). The GI50 with IGROV-1 is > 100 µM (inactive); in the assay on COLO 205, > 100 µM (inactive); in the assay on A549, > 100 µM (inactive); in the assay on HL-60, 17.6 µM (inactive); in the assay with TK-10, > 100 µM (inactive); with T47D, 36.1 µM (inactive). Further, the GI50 in the assay with OVCAR-8 is 75.2 µM (inactive).

For `O=C(c1ccccc1)c1ccc(COc2ccc(C(c3c(O)c4ccccc4oc3=O)c3c(O)c4ccccc4oc3=O)cc2)cc1`, the GI50 in the assay on CCRF-CEM was 3.84 µM (inactive); with OVCAR-4, 30.2 µM (inactive); in the assay on HCT-116, 33.3 µM (inactive); with UACC-257 it was 19.4 µM (inactive); in the assay on HCC 2998, 18.5 µM (inactive); with RPMI-8226, 12.5 µM (inactive). In addition, the GI50 was 19.2 µM (inactive) in the assay with SK-OV-3; 59.8 µM (inactive) in the assay with DU-145; 17.4 µM (inactive) with NCI-H23; 34.3 µM (inactive) in the assay with MDA-MB-231; 23.9 µM (inactive) with SF-539; 19.3 µM (inactive) in the assay on ACHN. For the same compound, the GI50 in the assay with OVCAR-5 was 18.9 µM (inactive); with IGROV-1, 13.5 µM (inactive); in the assay on COLO 205, 20.2 µM (inactive); with A549, 26.2 µM (inactive); in the assay with TK-10 it was 17.1 µM (inactive); in the assay with T47D, 20.5 µM (inactive). In addition, in the assay with OVCAR-8, the GI50 was 17.2 µM (inactive).

Regarding `Cc1cc2c(cc1Cl)SC(NS(=O)(=O)c1ccc(Cl)cc1)=NS2(=O)=O`, the GI50 in the assay with CCRF-CEM is 56.8 µM (inactive); in the assay on OVCAR-4, 39.4 µM (inactive); with HCT-116, 35.4 µM (inactive); with UACC-257 it was 46.8 µM (inactive); in the assay with RPMI-8226 it was 57 µM (inactive); in the assay with SK-OV-3, > 100 µM (inactive). In addition, the GI50 was 83.9 µM (inactive) in the assay on DU-145; 30.5 µM (inactive) in the assay on NCI-H23; 67.6 µM (inactive) in the assay with MDA-MB-231; 18.3 µM (inactive) with SF-539; > 100 µM (inactive) in the assay on ACHN; 35.4 µM (inactive) in the assay on OVCAR-5. Also, the GI50 is 89.5 µM (inactive) in the assay on IGROV-1; > 100 µM (inactive) in the assay with COLO 205; > 100 µM (inactive) in the assay with A549; > 100 µM (inactive) in the assay with HL-60; 30.3 µM (inactive) in the assay on TK-10; > 100 µM (inactive) in the assay on T47D.

As to `Cc1ccc(OP(=O)(Oc2ccc(C)cc2)N2C=Cc3ccccc3C2C#N)cc1` (configuration not stated), the GI50 in the assay with CCRF-CEM, with OVCAR-4, in the assay with HCT-116, in the assay on UACC-257, in the assay with RPMI-8226 and with SK-OV-3 was > 100 µM (inactive) in each case. The GI50 in the assay with DU-145, in the assay with NCI-H23, in the assay with MDA-MB-231, with SF-539, in the assay on ACHN and with OVCAR-5 was > 100 µM (inactive) each time. Besides, the GI50 in the assay on IGROV-1, in the assay with COLO 205, in the assay on A549, in the assay on HL-60, in the assay with TK-10 and with T47D was > 100 µM (inactive) in each case. Moreover, the GI50 with OVCAR-8 is > 100 µM (inactive).

For orientation: GI50 means the concentration at which growth is held to half of that of the control.

Values taken from ChEMBL document CHEMBL1201862, “PubChem BioAssay data set” (2004).
